Experimental data published in patent publication US9212182B2, “Bicyclic sulfonamide compounds as sodium channel inhibitors” (AMGEN INC., priority 2013, dated 2015).
Like-named read-outs stand apart in the source and are kept apart here.

Target: Nav 1.7 (Homo sapiens (Human), UniProt Q15858)
Assay: in-vitro Nav 1.7 PX (IC50)
Type: cell-based

Sequence of Nav 1.7 (Q15858 whole entry): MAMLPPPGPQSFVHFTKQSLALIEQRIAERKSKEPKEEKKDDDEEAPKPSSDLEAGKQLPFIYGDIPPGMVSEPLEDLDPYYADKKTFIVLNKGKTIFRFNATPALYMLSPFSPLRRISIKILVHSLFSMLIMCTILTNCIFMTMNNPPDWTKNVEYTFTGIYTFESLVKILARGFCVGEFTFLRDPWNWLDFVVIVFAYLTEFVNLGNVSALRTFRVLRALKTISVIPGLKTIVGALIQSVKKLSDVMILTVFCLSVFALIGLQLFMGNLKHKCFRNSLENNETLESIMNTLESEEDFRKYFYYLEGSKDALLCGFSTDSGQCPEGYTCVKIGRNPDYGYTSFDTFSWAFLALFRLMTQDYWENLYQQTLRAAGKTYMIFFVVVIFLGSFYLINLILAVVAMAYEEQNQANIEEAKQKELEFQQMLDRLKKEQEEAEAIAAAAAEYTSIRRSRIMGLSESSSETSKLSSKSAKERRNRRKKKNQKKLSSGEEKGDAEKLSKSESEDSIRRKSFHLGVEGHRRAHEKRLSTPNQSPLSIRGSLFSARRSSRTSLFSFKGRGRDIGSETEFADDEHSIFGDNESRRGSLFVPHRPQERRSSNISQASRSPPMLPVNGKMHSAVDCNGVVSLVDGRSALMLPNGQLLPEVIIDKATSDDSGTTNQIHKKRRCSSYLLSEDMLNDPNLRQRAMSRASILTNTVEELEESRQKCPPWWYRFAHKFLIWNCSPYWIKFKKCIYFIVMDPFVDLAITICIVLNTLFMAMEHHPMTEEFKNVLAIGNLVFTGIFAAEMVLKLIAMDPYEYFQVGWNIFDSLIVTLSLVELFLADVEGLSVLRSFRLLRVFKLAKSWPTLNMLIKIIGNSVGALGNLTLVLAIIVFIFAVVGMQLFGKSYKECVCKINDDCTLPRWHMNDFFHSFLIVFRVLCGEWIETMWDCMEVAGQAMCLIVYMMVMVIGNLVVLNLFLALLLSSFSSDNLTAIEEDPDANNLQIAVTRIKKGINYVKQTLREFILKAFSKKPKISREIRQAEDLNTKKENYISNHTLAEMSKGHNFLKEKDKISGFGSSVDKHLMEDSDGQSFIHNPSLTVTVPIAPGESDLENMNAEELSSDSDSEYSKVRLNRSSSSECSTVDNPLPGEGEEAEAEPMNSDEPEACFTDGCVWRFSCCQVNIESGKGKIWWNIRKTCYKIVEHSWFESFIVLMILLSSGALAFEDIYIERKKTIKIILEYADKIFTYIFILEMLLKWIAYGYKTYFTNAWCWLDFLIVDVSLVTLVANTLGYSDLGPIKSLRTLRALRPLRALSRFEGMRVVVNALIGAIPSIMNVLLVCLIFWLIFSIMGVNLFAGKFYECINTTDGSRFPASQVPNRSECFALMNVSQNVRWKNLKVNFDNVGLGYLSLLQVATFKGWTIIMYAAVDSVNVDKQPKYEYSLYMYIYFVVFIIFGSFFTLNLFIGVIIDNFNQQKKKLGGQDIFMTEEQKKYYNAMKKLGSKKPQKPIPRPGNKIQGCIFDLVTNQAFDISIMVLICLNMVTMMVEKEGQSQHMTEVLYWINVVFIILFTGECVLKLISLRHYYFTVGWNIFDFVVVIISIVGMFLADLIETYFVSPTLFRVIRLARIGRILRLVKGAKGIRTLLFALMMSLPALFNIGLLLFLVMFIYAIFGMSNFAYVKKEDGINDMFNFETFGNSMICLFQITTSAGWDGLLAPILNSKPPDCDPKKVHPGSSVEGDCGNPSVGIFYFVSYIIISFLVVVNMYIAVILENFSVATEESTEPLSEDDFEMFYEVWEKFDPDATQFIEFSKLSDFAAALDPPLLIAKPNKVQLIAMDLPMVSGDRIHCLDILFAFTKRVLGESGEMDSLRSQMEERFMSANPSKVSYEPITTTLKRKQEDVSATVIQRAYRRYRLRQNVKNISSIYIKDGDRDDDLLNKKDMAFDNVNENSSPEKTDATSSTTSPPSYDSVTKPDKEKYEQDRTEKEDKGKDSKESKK

Structure (SMILES)	IC50 [nM]	also measured
COc1cc(Br)c(F)cc1-n1c(=O)ccc2cc(S(=O)(=O)Nc3cc(OCC(C)C)ncn3)ccc21 (atropisomer, axis not shown; (P)) [Example 1187, (P)-1-(4-bromo-5-fluoro-2-methoxyphenyl)-N-(6-(2-methylpropoxy)-4-pyrimidinyl)-2-oxo-1,2-dihydro-6-quinolinesulfonamide]	1660	
COc1cc(Br)c(F)cc1-n1c(=O)ccc2cc(S(=O)(=O)Nc3cc(OC4CCC4)ncn3)ccc21 (atropisomer, axis not shown; (P)) [Example 1188, (P)-1-(4-bromo-5-fluoro-2-methoxyphenyl)-N-(6-(cyclobutyloxy)-4-pyrimidinyl)-2-oxo-1,2-dihydro-6-quinolinesulfonamide]	10600	
COc1cc(Br)c(F)cc1-n1c(=O)ccc2cc(S(=O)(=O)Nc3cc(OCC4(C)CC4)ncn3)ccc21 (atropisomer, axis not shown; (P)) [Example 1189, (P)-1-(4-bromo-5-fluoro-2-methoxyphenyl)-N-(6-((1-methylcyclopropyl)methoxy)-4-pyrimidinyl)-2-oxo-1,2-dihydro-6-quinolinesulfonamide]	8360	
COc1nc(-c2ccc(F)cc2)c(Cl)cc1-n1c(=O)ccc2cc(S(=O)(=O)Nc3ccon3)ccc21 (atropisomer, axis not shown; (P)) [Example 1203, (P)-1-(5-chloro-6-(4-fluorophenyl)-2-methoxy-3-pyridinyl)-N-3-isoxazolyl-2-oxo-1,2-dihydro-6-quinolinesulfonamide]	187	
COc1cc(-c2cccc(OC(C)C)c2)ccc1-n1c(=O)ccc2cc(S(=O)(=O)Nc3cc(C)ncn3)ccc21 (atropisomer, axis not shown; (P)) [Example 1205, (P)-1-(3-methoxy-3′-(1-methylethoxy)-4-biphenylyl)-N-(6-methyl-4-pyrimidinyl)-2-oxo-1,2-dihydro-6-quinolinesulfonamide]	290	
COc1cc(-c2cccc(OC(C)C)c2)ccc1-n1c(=O)ccc2cc(S(=O)(=O)Nc3nccc(C)n3)ccc21 (atropisomer, axis not shown; (P)) [Example 1206, (P)-1-(3-methoxy-3′-(1-methylethoxy)-4-biphenylyl)-N-(4-methyl-2-pyrimidinyl)-2-oxo-1,2-dihydro-6-quinolinesulfonamide]	590	
COc1cc(-c2cccc(OC(C)C)c2)ccc1-n1c(=O)ccc2cc(S(=O)(=O)Nc3cccnn3)ccc21 (atropisomer, axis not shown; (P)) [Example 1207, (P)-1-(3-methoxy-3′-(1-methylethoxy)-4-biphenylyl)-2-oxo-N-3-pyridazinyl-1,2-dihydro-6-quinolinesulfonamide]	109	
COc1cc(-c2cccc(OC(C)C)c2)ccc1-n1c(=O)ccc2cc(S(=O)(=O)Nc3cccc(F)n3)ccc21 (atropisomer, axis not shown; (P)) [Example 1208, (P)-N-(6-fluoro-2-pyridinyl)-1-(3-methoxy-3′-(1-methylethoxy)-4-biphenylyl)-2-oxo-1,2-dihydro-6-quinolinesulfonamide]	258	
COc1cc(-c2cccc(C(F)(F)F)c2)c(F)cc1-n1c(=O)ccc2cc(S(=O)(=O)Nc3cccc(F)n3)ccc21 (atropisomer, axis not shown; (P)) [Example 1209, (P)-1-(2-fluoro-5-methoxy-3′-(trifluoromethyl)-4-biphenylyl)-N-(6-fluoro-2-pyridinyl)-2-oxo-1,2-dihydro-6-quinolinesulfonamide]	75	
COc1cc(C2CC2)ccc1-n1c(=O)ccc2cc(S(=O)(=O)Nc3ccon3)ccc21 (atropisomer, axis not shown; (P)) [Example 1210, (P)-1-(4-cyclopropyl-2-methoxyphenyl)-N-3-isoxazolyl-2-oxo-1,2-dihydro-6-quinolinesulfonamide]	2370	
COc1nc(C2CC2)c(Cl)cc1-n1c(=O)ccc2cc(S(=O)(=O)Nc3ccon3)ccc21 (atropisomer, axis not shown; (P)) [Example 1230, (P)-1-(5-chloro-6-cyclopropyl-2-methoxy-3-pyridinyl)-N-3-isoxazolyl-2-oxo-1,2-dihydro-6-quinolinesulfonamide]	472	
COc1cc(C#CC2(O)CCCC2)c(F)cc1-n1c(=O)ccc2cc(S(=O)(=O)Nc3ccon3)ccc21 (atropisomer, axis not shown; (P)) [Example 1233, (P)-1-(5-fluoro-4-((1-hydroxycyclopentyl)ethynyl)-2-methoxyphenyl)-N-3-isoxazolyl-2-oxo-1,2-dihydro-6-quinolinesulfonamide]	631	
COc1cc(C[C@H]2CCOC2)c(F)cc1-n1c(=O)ccc2cc(S(=O)(=O)Nc3ccon3)ccc21 (atropisomer, axis not shown; (P)) [Example 1234, (P)-1-(5-fluoro-2-methoxy-4-((3S)-tetrahydro-3-furanylmethyl)phenyl)-N-3-isoxazolyl-2-oxo-1,2-dihydro-6-quinolinesulfonamide]	1140	
COc1cc(C[C@@H]2CCOC2)c(F)cc1-n1c(=O)ccc2cc(S(=O)(=O)Nc3ccon3)ccc21 (atropisomer, axis not shown; (P)) [Example 1235, (P)-1-(5-fluoro-2-methoxy-4-((3R)-tetrahydro-3-furanylmethyl)phenyl)-N-3-isoxazolyl-2-oxo-1,2-dihydro-6-quinolinesulfonamide]	2130	
COc1cc(C#CC2(F)CCCC2)c(F)cc1-n1c(=O)ccc2cc(S(=O)(=O)Nc3cccnn3)ccc21 (atropisomer, axis not shown; (P)) [Example 1238, (P)-1-(5-fluoro-4-((1-fluorocyclopentyl)ethynyl)-2-methoxyphenyl)-2-oxo-N-3-pyridazinyl-1,2-dihydro-6-quinolinesulfonamide]	94	
COc1cc(C#CC2CCCC2)ccc1-n1c(=O)ccc2cc(S(=O)(=O)Nc3cccnn3)ccc21 (atropisomer, axis not shown; (P)) [Example 1239, (P)-1-(4-(cyclopentylethynyl)-2-methoxyphenyl)-2-oxo-N-3-pyridazinyl-1,2-dihydro-6-quinolinesulfonamide]	113	
COc1nc(C#CC2CCCC2)c(Cl)cc1-n1c(=O)ccc2cc(S(=O)(=O)Nc3cccnn3)ccc21 (atropisomer, axis not shown; (P)) [Example 1240, (P)-1-(5-chloro-6-(cyclopentylethynyl)-2-methoxy-3-pyridinyl)-2-oxo-N-3-pyridazinyl-1,2-dihydro-6-quinolinesulfonamide]	124	
COc1cc(-c2cccc(C(F)(F)F)c2)ccc1-n1c(=O)ccc2cc(S(=O)(=O)Nc3cccc(F)n3)ccc21 (atropisomer, axis not shown; (P)) [Example 1242, (P)—N-(6-fluoro-2-pyridinyl)-1-(3-methoxy-3′-(trifluoromethyl)-4-biphenylyl)-2-oxo-1,2-dihydro-6-quinolinesulfonamide]	79	
O=c1ccc2cc(S(=O)(=O)Nc3ccon3)ccc2n1-c1ccc(-c2cccc(F)c2)cc1CC(O)CO (racemic) [Example 327, 1-(3-((2R)-2,3-dihydroxypropyl)-3′-fluoro-4-biphenylyl)-N-3-isoxazolyl-2-oxo-1,2-dihydro-6-quinolinesulfonamide, 1-(3-((2S)-2,3-dihydroxypropyl)-3′-fluoro-4-biphenylyl)-N-3-isoxazolyl-2-oxo-1,2-dihydro-6-quinolinesulfonamide]	5570	
CO[C@H]1CCCC[C@@H]1n1c(=O)ccc2cc(S(=O)(=O)Nc3ncns3)ccc21 (racemic) [Example 1145, (±)-1-((1S,2S)-2-methoxycyclohexyl)-2-oxo-N-1,2,4-thiadiazol-5-yl-1,2-dihydro-6-quinolinesulfonamide]	471	
CCOc1cccc(-c2ccc(-n3c(=O)ccc4cc(S(=O)(=O)Nc5ccon5)ccc43)c(OC)c2)c1 [631/779, 1-(3′-ethoxy-3-methoxy-4-biphenylyl)-N-3-isoxazolyl-2-oxo-1,2-dihydro-6-quinolinesulfonamide]		IC50 (in-vitro Nav 1.7 PX data): 24 nM
COc1cc(-c2ccc(Cl)cc2)c(F)cc1-n1c(=O)ccc2cc(S(=O)(=O)Nc3ccon3)ccc21 [634/675, 1-(4′-chloro-2-fluoro-5-methoxy-4-biphenylyl)-N-3-isoxazolyl-2-oxo-1,2-dihydro-6-quinolinesulfonamide]		IC50 (in-vitro Nav 1.7 PX data): 13 nM
COc1nc(OCC2CC2)c(Cl)cc1-n1c(=O)ccc2cc(S(=O)(=O)Nc3ccon3)ccc21 [638/819, 1-(5-chloro-6-(cyclopropylmethoxy)-2-methoxy-3-pyridinyl)-N-3-isoxazolyl-2-oxo-1,2-dihydro-6-quinolinesulfonamide]		IC50 (in-vitro Nav 1.7 PX data): 825 nM
COc1nc(C2CC2)c(Cl)cc1-n1c(=O)ccc2cc(S(=O)(=O)Nc3ccon3)ccc21 [640/830, 1-(5-chloro-6-cyclopropyl-2-methoxy-3-pyridinyl)-N-3-isoxazolyl-2-oxo-1,2-dihydro-6-quinolinesulfonamide]		IC50 (in-vitro Nav 1.7 PX data): 38 nM
COc1ccc(-c2cccc(C(F)(F)F)c2)cc1-n1c(=O)ccc2cc(S(=O)(=O)Nc3ccon3)ccc21 [Example 312, N-3-isoxazolyl-1-(4-methoxy-3′-(trifluoromethyl)-3-biphenylyl)-2-oxo-1,2-dihydro-6-quinolinesulfonamide]	22	
COc1nc(-c2cccc(F)c2)c(Cl)cc1-n1c(=O)ccc2cc(S(=O)(=O)Nc3ccon3)ccc21 [Example 341, 1-(5-chloro-6-(3-fluorophenyl)-2-methoxypyridin-3-yl)-N-(isoxazol-3-yl)-2-oxo-1,2-dihydroquinoline-6-sulfonamide]		IC50 (in-vitro PatchXpress (PX)): 168 nM
COc1nc(N2CC(F)(F)C2)c(Cl)cc1-n1c(=O)ccc2cc(S(=O)(=O)Nc3ccon3)ccc21 [Example 342, 1-(5-chloro-6-(3,3-difluoroazetidin-1-yl)-2-methoxypyridin-3-yl)-N-(isoxazol-3-yl)-2-oxo-1,2-dihydroquinoline-6-sulfonamide]		IC50 (in-vitro PatchXpress (PX)): 1640 nM
O=c1ccc2cc(S(=O)(=O)Nc3ccon3)ccc2n1-c1ccc(C(F)(F)F)cc1-c1cn[nH]c1 [Example 346, P-1-(2-(1H-pyrazol-4-yl)-4-(trifluoromethyl)phenyl)-N-(isoxazol-3-yl)-2-oxo-1,2-dihydroquinoline-6-sulfonamide]	648	
